This passage reports pest or weed control results from US20230017045A1, “PYRIDINE AND PYRIMIDINE CARBOXYLATE HERBICIDES AND METHODS OF USE THEREOF” (Dow AgroSciences LLC, priority 2017, published 2023).

Molecules are shown by their SMILES. Like-named read-outs stand apart in the source and are kept apart here.

The assay relates to test plant species. Briefly: Post-emergent herbicidal activity test (greenhouse, foliar spray, visual growth reduction). The format is in vivo. As to conditions: post-emergence, 336 h, 140 g ai/ha, 14 days after application. The gist of the method: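 Scoring used a 0 to 100 percent visual scale of growth reduction against solvent-treated controls, read 14 d after spraying. Applications went onto plants at first or second true leaf stage, 187 L/ha, with crop oil concentrate and X-77 surfactant in the carrier. Post-treatment watering was by subirrigation to avoid wash-off.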

Where [1] appears, read: ALOMY: blackgrass (Alopecurus myosuroides), read-out: Visual Growth Reduction (%) 14 Days After Application, ALOMY.
[2] abbreviates: AMARE: redroot pigweed (Amaranthus retroflexus), read-out: Visual Growth Reduction (%) 14 Days After Application, AMARE.
Setting [3] is: AVEFA: wild oat (Avena fatua), read-out: Visual Growth Reduction (%) 14 Days After Application, AVEFA.
Where [4] appears, read: CHEAL: lambsquarters (Chenopodium album), read-out: Visual Growth Reduction (%) 14 Days After Application, CHEAL.
Where [5] appears, read: CIRAR: canada thistle (Cirsium arvense), read-out: Visual Growth Reduction (%) 14 Days After Application, CIRAR.
[6] abbreviates: CYPES: yellow nutsedge (Cyperus esculentus), read-out: Visual Growth Reduction (%) 14 Days After Application, CYPES.
Where [7] appears, read: DIGSA: crabgrass (Digitaria sanguinalis), read-out: Visual Growth Reduction (%) 14 Days After Application, DIGSA.
[8] abbreviates: ECHCG: barnyardgrass (Echinochloa crus-galli), read-out: Visual Growth Reduction (%) 14 Days After Application, ECHCG.
The mark [9] stands for this setting: IPOHE: ivy-leaf morning glory (Ipomoea hederacea), read-out: Visual Growth Reduction (%) 14 Days After Application, IPOHE.
The mark [10] stands for this setting: KCHSC: kochia (Bassia scoparia), read-out: Visual Growth Reduction (%) 14 Days After Application, KCHSC.
Where [11] appears, read: ORYSA: rice (Oryza sativa), read-out: Visual Growth Reduction (%) 14 Days After Application, ORYSA.
[12] abbreviates: SETFA: giant foxtail (Setaria faberi), read-out: Visual Growth Reduction (%) 14 Days After Application, SETFA.
Where [13] appears, read: SORVU: grain sorghum (Sorghum vulgare), read-out: Visual Growth Reduction (%) 14 Days After Application, SORVU.
Setting [14] is: STEME: common chickweed (Stellaria media), read-out: Visual Growth Reduction (%) 14 Days After Application, STEME.
Setting [15] is: TRZAS: wheat, spring (Triticum aestivum), read-out: Visual Growth Reduction (%) 14 Days After Application, TRZAS.

For the molecule `O=C(O)c1nc(-c2cc3c(cc2Cl)OC(F)(F)O3)ccc1Cl` [F126], the pest or weed control at 140 g/ha lay within 0 to 29% under setting [1]; 95 to 100% under setting [2]; 0 to 29% under setting [3]; 85 to 94% under setting [4]; 75 to 84% under setting [5]; 0 to 29% under setting [6]. Moreover, the pest or weed control at 140 g/ha is, setting by setting: under setting [7], 85 to 94%; under setting [8], 60 to 74%; under setting [9], 95 to 100%; under setting [10], 60 to 74%; under setting [11], 0 to 29%; under setting [12], 60 to 74%. The pest or weed control at 140 g/ha by setting is: under setting [13], 75 to 84%; under setting [14], 0 to 29%; under setting [15], 75 to 84%.

With `O=C(O)c1nc(-c2ccc(SC(F)(F)F)cc2Cl)c(Cl)cc1Cl` [F127, 3,5-Dichloro-6-(2-chloro-4-((trifluoromethyl)thio)phenyl) picolinic acid], the pest or weed control at 140 g/ha is, setting by setting: under setting [1], 0 to 29%; under setting [2], 95 to 100%; under setting [3], 0 to 29%; under setting [4], 75 to 84%; under setting [5], 85 to 94%; under setting [6], 0 to 29%. In addition, the pest or weed control at 140 g/ha fell in the range of 60 to 74% under setting [7]; 0 to 29% under setting [8]; 45 to 59% under setting [9]; 75 to 84% under setting [10]; 0 to 29% under setting [11]; 75 to 84% under setting [12]. Moreover, the pest or weed control at 140 g/ha is, setting by setting: under setting [13], 60 to 74%; under setting [14], 0 to 29%; under setting [15], 0 to 29%.

For `COC(=O)c1nc(-c2cc(O)c(Cl)cc2F)ccc1Cl` [F128, Methyl 3-chloro-6-(4-chloro-2-fluoro-5-hydroxyphenyl) picolinate], the pest or weed control at 140 g/ha reads like this: under setting [1], 0 to 29%; under setting [2], 0 to 29%; under setting [3], 0 to 29%; under setting [4], 0 to 29%; under setting [5], 0 to 29%; under setting [6], 0 to 29%. Besides, the pest or weed control at 140 g/ha reads like this: under setting [7], 0 to 29%; under setting [8], 0 to 29%; under setting [9], 0 to 29%; under setting [10], 0 to 29%; under setting [11], 0 to 29%; under setting [12], 0 to 29%. In addition, the pest or weed control at 140 g/ha by setting is: under setting [13], 0 to 29%; under setting [14], 0 to 29%; under setting [15], 0 to 29%.

As to `COC(=O)c1nc(-c2cc(Cl)cnc2OC)ccc1Cl` [F129, Methyl 5,5′-dichloro-2′-methoxy-[2,3′-bipyridine-6-carboxylate], the pest or weed control at 140 g/ha under setting [1] is 0 to 29%; the pest or weed control at 140 g/ha under setting [2] lay within 0 to 29%; the pest or weed control at 140 g/ha under setting [3] was 0 to 29%; the pest or weed control at 140 g/ha under setting [4] fell in the range of 0 to 29%; the pest or weed control at 140 g/ha under setting [5] lay in the range of 0 to 29%; the pest or weed control at 140 g/ha under setting [6] is 0 to 29%. The pest or weed control at 140 g/ha reads like this: under setting [7], 0 to 29%; under setting [8], 0 to 29%; under setting [9], 0 to 29%; under setting [10], 0 to 29%; under setting [11], 0 to 29%; under setting [12], 0 to 29%. The pest or weed control at 140 g/ha is 0 to 29% under setting [13], 0 to 29% under setting [14] and 0 to 29% under setting [15].

As to `COC(=O)c1nc(-c2ccc(SC(F)(F)F)cc2Cl)c(Cl)cc1Cl` [F130, Methyl 3,5-dichloro-6-(2-chloro-4-((trifluoromethyl)thio)phenyl) picolinate], the pest or weed control at 140 g/ha under setting [1] fell in the range of 0 to 29%; the pest or weed control at 140 g/ha under setting [2] was 85 to 94%; the pest or weed control at 140 g/ha under setting [3] lay in the range of 0 to 29%; the pest or weed control at 140 g/ha under setting [4] lay in the range of 75 to 84%; the pest or weed control at 140 g/ha under setting [5] was 75 to 84%; the pest or weed control at 140 g/ha under setting [6] lay in the range of 0 to 29%. Further, the pest or weed control at 140 g/ha was 60 to 74% under setting [7]; 0 to 29% under setting [8]; 30 to 44% under setting [9]; 60 to 74% under setting [10]; 0 to 29% under setting [11]; 60 to 74% under setting [12]. Further, the pest or weed control at 140 g/ha reads like this: under setting [13], 30 to 44%; under setting [14], 0 to 29%; under setting [15], 0 to 29%.

Regarding `O=C(O)c1nc(-c2ccc(SC(F)(F)F)cc2Cl)c(F)cc1Cl` [F131, 3-Chloro-6-(2-chloro-4-((trifluoromethyl)thio)phenyl)-5-fluoropicolinic acid], the pest or weed control at 140 g/ha by setting is: under setting [1], 45 to 59%; under setting [2], 95 to 100%; under setting [3], 75 to 84%; under setting [4], 95 to 100%; under setting [5], 95 to 100%; under setting [6], 0 to 29%. In addition, the pest or weed control at 140 g/ha is, setting by setting: under setting [7], 95 to 100%; under setting [8], 60 to 74%; under setting [9], 95 to 100%; under setting [10], 95 to 100%; under setting [11], 30 to 44%; under setting [12], 85 to 94%. Moreover, the pest or weed control at 140 g/ha is 85 to 94% under setting [13], 0 to 29% under setting [14] and 60 to 74% under setting [15].

In the case of `O=C(O)c1nc(-c2ccc(C(F)(F)F)cc2Cl)ccc1F` [F132, 6-(2-Chloro-4-(trifluoromethyl)phenyl)-3-fluoropicolinic acid], the pest or weed control at 140 g/ha was in the range of 0 to 29% under setting [1]; 95 to 100% under setting [2]; 0 to 29% under setting [3]; 95 to 100% under setting [4]; 85 to 94% under setting [5]; 0 to 29% under setting [6]. Moreover, the pest or weed control at 140 g/ha lay within 75 to 84% under setting [7]; 60 to 74% under setting [8]; 95 to 100% under setting [9]; 75 to 84% under setting [10]; 0 to 29% under setting [11]; 75 to 84% under setting [12]. The pest or weed control at 140 g/ha is, setting by setting: under setting [13], 85 to 94%; under setting [14], 0 to 29%; under setting [15], 0 to 29%.

Regarding `O=C(O)c1nc(-c2ccnc(Cl)c2Cl)ccc1Cl` [F133, 2′,3′,5-Trichloro-[2,4′-bipyridine]-6-carboxylic acid], the pest or weed control at 140 g/ha lay within 0 to 29% under setting [1]; 0 to 29% under setting [2]; 0 to 29% under setting [3]; 75 to 84% under setting [4]; 0 to 29% under setting [5]; 0 to 29% under setting [6]. Further, the pest or weed control at 140 g/ha is, setting by setting: under setting [7], 45 to 59%; under setting [8], 0 to 29%; under setting [9], 45 to 59%; under setting [10], 0 to 29%; under setting [11], 0 to 29%; under setting [12], 0 to 29%. Besides, the pest or weed control at 140 g/ha reads like this: under setting [13], 60 to 74%; under setting [14], 0 to 29%; under setting [15], 0 to 29%.
